We go through 1 compound from patent US20230028658A1, “EXPANDED DOSAGE REGIMENS FOR INTEGRIN INHIBITORS” (Pliant Therapeutics, Inc., priority 2021, published 2023).

Read-outs that look alike come from different tables or passages of the source.

The subject of one data set is pSMAD2/SMAD2. In words: pSMAD2/SMAD2 in BALF cells of healthy participants, Example B15 Part 1. The class given is in vivo, human. Particulars: preliminary analysis. The text has this: The primary objective of this study was to assess the pharmacodynamic changes in biomarkers of TGF-β activation in alveolar macrophages from bronchoalveolar lavage fluid (BALF) following dosing of Compound 5 for 7 days. Secondary objectives of this study were to assess the safety and tolerability of Compound 5 following dosing for 7 days, the plasma PK of Compound 5, and the PK/PD (BALF biomarkers) relationship.
(§1) This study was designed as a randomized, double-blind, placebo-controlled study in 48 healthy participants conducted in 2 parts. Part 1 has completed clinical conduct, and Part 2 is ongoing. In Part 1, 24 participants were randomized 1:1:1 to receive Compound 5 80 mg QD, Compound 5 160 mg QD, or placebo QD. A safety review committee reviewed the safety and PK data from Part 1 and recommended doses for Part 2. In Part 2, 24 participants were randomized 1:1:1 to receive Compound 5 320 mg QD (Compound 5 in the morning and matched placebo in the afternoon), Compound 5 160 mg twice daily (BID), or placebo BID. In both parts, samples of BALF were collected from the middle lobe or lingula via bronchoscopy prior to dosing (Day −1) and at 6 and 24 hours post morning dose on Day 7. BALF samples were assessed for TGF-β receptor kinase activity (pSMAD2/SMAD2) in pelleted cells (primarily alveolar macrophages) and additional cell material was used to measure TGF-β signaling pathway-related gene expression levels. Plasma samples were collected to measure Compound 5 concentrations and determine protein binding. Safety was monitored via open-ended AE inquiry and clinical chemistry, hematology, vital sign, and 12-lead ECG parameters.

Data set [1] relates to IPF-derived human lung fibroblasts. Briefly: LAP adhesion binding assay, IPF-derived human lung fibroblasts (xCELLigence cell index). The following applies: FIG. 3B, adhesion to LAP. The class given is cell-based. The method, then:
Two latency associated peptide (LAP) adhesion binding assays were devised using primary human lung cells, including normal (healthy) human bronchial epithelial cells and human lung fibroblasts (healthy and IPF).
Human lung fibroblasts derived from normal and IPF lung tissue are known to express αvβ1 integrin. The IPF-derived human lung fibroblasts were prepared for the assay by dissociation with trypsin/EDTA, and were seeded at 20,000 cells per well on 96 well plates (ACEA Bioscience E-plate View, Acea Biosciences; San Diego, Calif.) previously coated with 5 μg/ml of recombinant human LAP (R&D Systems; Minneapolis, Minn.) and blocked with 4% bovine serum albumin. Cell index (electrical impedance) was measured to assess cell attachment/spreading every 3 minutes for 24 hours at 37° C./5% CO2 using the xCELLigence RTCA MP Instrument (Acea Biosciences; San Diego, Calif.). […] In the assay, the IPF-derived human lung fibroblasts were separately incubated with: the αvβ1-selective small molecule inhibitor; the selective antibody αvβ6 inhibitor, 3G9; and compound 5.

The target in another data set is αvβ6 (Homo sapiens, UniProt P06756+P18564). In words: IC50 of αvβ6 adjusted for protein binding.
αvβ6, sequence (P06756 31-1048): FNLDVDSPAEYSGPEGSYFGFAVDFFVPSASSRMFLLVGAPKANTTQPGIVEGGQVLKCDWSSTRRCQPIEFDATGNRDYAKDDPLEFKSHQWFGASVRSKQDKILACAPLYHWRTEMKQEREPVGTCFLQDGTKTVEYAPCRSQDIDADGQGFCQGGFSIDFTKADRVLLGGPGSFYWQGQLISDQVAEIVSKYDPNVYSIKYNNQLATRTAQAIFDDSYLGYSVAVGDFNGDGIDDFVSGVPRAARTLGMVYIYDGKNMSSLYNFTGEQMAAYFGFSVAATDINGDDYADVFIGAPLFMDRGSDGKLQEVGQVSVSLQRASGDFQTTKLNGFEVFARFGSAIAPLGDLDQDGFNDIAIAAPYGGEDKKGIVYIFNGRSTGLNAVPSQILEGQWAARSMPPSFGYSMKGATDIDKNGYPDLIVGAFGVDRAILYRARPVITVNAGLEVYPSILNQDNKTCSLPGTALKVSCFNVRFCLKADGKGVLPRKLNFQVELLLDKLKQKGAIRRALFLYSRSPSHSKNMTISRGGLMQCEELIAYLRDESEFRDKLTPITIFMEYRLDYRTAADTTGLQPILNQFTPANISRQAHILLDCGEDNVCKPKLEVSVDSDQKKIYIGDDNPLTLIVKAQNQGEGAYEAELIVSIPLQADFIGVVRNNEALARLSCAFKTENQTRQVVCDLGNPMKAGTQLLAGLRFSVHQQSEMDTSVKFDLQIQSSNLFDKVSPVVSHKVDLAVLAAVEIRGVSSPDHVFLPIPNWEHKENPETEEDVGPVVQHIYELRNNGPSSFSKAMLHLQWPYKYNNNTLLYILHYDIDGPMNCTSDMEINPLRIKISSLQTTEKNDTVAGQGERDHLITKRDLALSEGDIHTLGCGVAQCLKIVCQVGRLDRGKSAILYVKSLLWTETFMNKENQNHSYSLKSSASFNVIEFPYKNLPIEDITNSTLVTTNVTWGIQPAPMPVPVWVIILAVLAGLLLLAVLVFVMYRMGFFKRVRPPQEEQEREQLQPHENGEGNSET
αvβ6, sequence (P18564 22-788): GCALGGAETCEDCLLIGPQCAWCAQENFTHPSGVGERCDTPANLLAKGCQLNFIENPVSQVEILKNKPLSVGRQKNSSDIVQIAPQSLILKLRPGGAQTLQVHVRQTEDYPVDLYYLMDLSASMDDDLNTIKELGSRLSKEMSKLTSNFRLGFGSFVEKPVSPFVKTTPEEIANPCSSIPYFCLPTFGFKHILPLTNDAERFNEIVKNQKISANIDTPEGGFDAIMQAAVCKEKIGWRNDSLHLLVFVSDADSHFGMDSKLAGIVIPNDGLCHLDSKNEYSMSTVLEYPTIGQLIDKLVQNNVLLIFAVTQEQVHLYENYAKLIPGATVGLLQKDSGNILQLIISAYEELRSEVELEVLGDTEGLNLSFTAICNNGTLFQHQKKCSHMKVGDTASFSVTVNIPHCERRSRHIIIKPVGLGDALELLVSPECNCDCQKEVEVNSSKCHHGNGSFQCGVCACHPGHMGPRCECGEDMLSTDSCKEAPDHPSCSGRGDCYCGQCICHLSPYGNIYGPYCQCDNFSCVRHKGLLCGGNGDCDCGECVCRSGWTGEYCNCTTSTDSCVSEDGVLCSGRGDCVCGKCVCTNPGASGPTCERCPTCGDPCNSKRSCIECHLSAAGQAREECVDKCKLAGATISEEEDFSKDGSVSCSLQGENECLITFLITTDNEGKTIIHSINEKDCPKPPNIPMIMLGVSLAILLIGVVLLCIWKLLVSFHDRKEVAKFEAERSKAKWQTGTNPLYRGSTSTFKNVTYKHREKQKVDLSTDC
Data set [2] in a line: First-in-human SAD and MAD pharmacokinetics (Example B12). The class given is in vivo. The following applies: plasma, healthy subjects, oral solution, SAD 15-75 mg and MAD 10-40 mg, read-out: calculated half life. The method, then: Healthy human subjects (N=85) were selected for single ascending dose (SAD) and multiple ascending dose (MAD) first-in-human studies. A solution for oral administration was prepared, containing 10 mg/mL of compound 5 in a 50:50 mixture of ORA-SWEET® SF (PERRIGO®, Allegan, Mich.) and sterile water for irrigation. Sufficient solution was administered orally to the subjects to provide between 15 mg/dose and 75 mg/dose of compound 5 in the SAD study and between 10 mg/dose and 40 mg/dose of compound 5 in the MAD study. Concentrations of compound 5 were measured in the subjects by obtaining a sample of plasma from each subject at desired intervals, and subjecting the plasma to liquid chromatography-mass spectrometry-mass spectrometry (LC-MS/MS), with quantification using a calibration curve determined from a range of solutions at standardized concentrations. The lower limit of quantitation (LLOQ) of the assay was 1 ng/mL and the calibration curve range was 1 to 500 ng/mL.

Another data set deals with COL1A1. Briefly: COL1A1 expression in precision cut lung slices (PCLS) from human IPF lung tissue (FIG. 6E). The class given is cell-based. Particulars: concentrations ranging from 200 pM to 1 μM, versus 0.1% DMSO control. The method, then: FIG. 6D is a bar graph showing relative expression of COL1A1 in precision cut lung slices (PCLS) from idiopathic pulmonary fibrosis (IPF) lung tissue upon exposure to Compound 5, clinical standard of care compounds nintedanib (Nin) and pirfenidone (Pirf), and an ALK5 inhibitor, all versus DMSO control.
COL1A1 expression is also graphed for the PCLS in the presence of 0.1% DMSO control, and an Alk5 inhibitor at 1 μM.

The nature of data set [3]: Plasma PK, Example B15 Part 1. The following applies: human, initial results; for Cmax / AUC(0-t): Day 7, geometric mean; for AUC(0-t): read-out: AUC0-24, ng × h/mL; for Tmax: Day 7, median. The class given is in vivo. How it is done: as §1
A short description of data set [4]: Safety at the higher doses of Examples B14 and B15. The following applies: healthy participants, higher doses of Examples B14 and B15 (80-640 mg). The class given is in vivo, human. How it is done:
This study was a single-center, randomized, double-blind, ascending dose, placebo-controlled study in healthy participants. Each cohort included 10 participants (8 active, 2 placebo). Study participants received single ascending doses (SAD) of Compound 5 of 120, 160, 240, 320, 480, and 640 mg and multiple ascending doses (MAD) of Compound 5 of 80, 120, 160, 240, and 320 mg. Two cohorts of participants at 160 mg were studied in the MAD phase of the study.
This study was designed as a randomized, double-blind, placebo-controlled study in 48 healthy participants conducted in 2 parts. Part 1 has completed clinical conduct, and Part 2 is ongoing. In Part 1, 24 participants were randomized 1:1:1 to receive Compound 5 80 mg QD, Compound 5 160 mg QD, or placebo QD. A safety review committee reviewed the safety and PK data from Part 1 and recommended doses for Part 2. […] BALF samples were assessed for TGF-β receptor kinase activity (pSMAD2/SMAD2) in pelleted cells (primarily alveolar macrophages) and additional cell material was used to measure TGF-β signaling pathway-related gene expression levels. […] Safety was monitored via open-ended AE inquiry and clinical chemistry, hematology, vital sign, and 12-lead ECG parameters.

Data set [5] relates to Type I Collagen gene Col1a1 expression. Briefly: Precision cut lung slices of mice under acute bleomycin exposure, Col1a1 expression. Particulars: acute bleomycin PCLS, 3 days culture, normalized to DMSO; FIG. 5A. The class given is cell-based, Mice (C57BL/6). The method, then:
Mice (C57BL/6) were administered 3 U/kg of bleomycin (Teva Pharmaceuticals; North Wales, Pa.) on day 0 via oropharyngeal aspiration while under anesthesia. On day 14, precision cut lung slices were obtained. Following euthanization, 2% low gelling temp agarose was injected into the mouse lungs via the trachea. […] The lobes were then subjected to precision slicing to obtain samples for culture using a microtome (Compresstome VF-300-0Z, Precisionary; Greenville, N.C.). Individual slices were distributed in a multiwell culture plate and cultured for 3 days under control (DMSO) and test compound conditions.

On to `COCCN(CCCCc1ccc2c(n1)NCCC2)CC[C@H](Nc1ncnc2ccccc12)C(=O)O` [Compound 5, (S)-4-((2-methoxyethyl) (4-(5,6,7,8-tetrahydro-1,8-naphthyridin-2-yl)butyl)amino)-2-(quinazolin-4-ylamino) butanoic acid], for which the “reduction in pSMAD2 levels (pSMAD2/SMAD2 ratio)” value with pSMAD2/SMAD2 (80 mg QD 7 days, 6 hours post dose Day 7) is 41.2%; in the data set with pSMAD2/SMAD2 (80 mg QD 7 days, 24 hours post dose Day 7), 36.6%; in the data set on pSMAD2/SMAD2 (160 mg QD 7 days, 6 hours post dose Day 7), 57.8%; with pSMAD2/SMAD2 (160 mg QD 7 days, 24 hours post dose Day 7) it was 53.2%. For the same compound, the “inhibition of cell adhesion in the IPF-derived lung fibroblasts” value in data set [1] is listed as “substantially inhibited”. The compound also showed a 50% inhibitory concentration (IC50) at αvβ6 of 10 nM. The half-life in data set [2] is 35 to 55 h. The “COL1A1 expression in PCLS from human IPF lung tissue” value with COL1A1 is given as “dose dependent reduction”. Besides, the values for the maximum concentration (Cmax) in data set [3] (80 mg QD) and in data set [3] (160 mg QD) were 1510 ng/mL and 2990 ng/mL, respectively. Also, the AUC(0-t) in data set [3] (80 mg QD) is 25400 ng·h/mL; in data set [3] (160 mg QD), 49900 ng·h/mL. The Tmax in data set [3] (80 mg QD) is 6 h; in data set [3] (160 mg QD) it was 5 h. Moreover, the adverse effects entry in data set [4] is reported as “no significant adverse effects”. Further, in data set [5], the “Type I Collagen gene Col1a1 expression” value is reported as “decreased Type I Collagen gene Col1a1 expression substantially”.

The term IC50 denotes the midpoint of a concentration-inhibition curve. Read a high IC50 as a need for much substance. Usually half-life stands for the time in which the quantity being followed falls by half. The Cmax is the peak of the concentration-time curve. As usually defined, the Tmax is the time from dosing to the highest level.
